Source: patent publication US20200338158A1, “Therapeutic Drug for Non-Alcoholic Fatty Liver Disease” (Shanghai Hep Pharmaceutical Co., Ltd., priority 2017, published 2020)
“Also recorded” adds a separate entry of the source.

What was measured:
Type in all cases: in vivo
C57BL6 mice [1] = test: Body weight and general observation of abdominal fat, mouse NASH model
Source text: (§1) In this example, a mouse nonalcoholic steatohepatitis (NASH) model was used to evaluate the effect of hepalatide (L47) on pathological changes and metabolism level of NASH, and to determine whether L47 can improve the pathological changes of NASH, so as to provide reference for pharmacodynamic evaluation of L47 before clinical treatment.
Each experimental group was provided with sufficient feed and water daily with free diet, and water was changed twice a week for sugar water-added group, and the remaining amount of feed was weighed and added to 150 g each week for each group in addition to the normal control group, and body weight of mice was weighed each week for each group.
(§2) At week 8 and week 16, liver was separated by dissection after anesthesia and blood collection, and pathological changes of liver tissues and accumulation of abdominal fat were grossly observed by the naked eye.

C57BL6 mice [2] = test: Liver weight and gross liver observation, mouse NASH model (high fat feed + high sugar water)
Source text: as §1
4.1.2 Model group (HFC-F/G): high fat feed+high sugar water, 9 mice in total, wherein 3 mice were sacrificed at week 8, and 6 mice were sacrificed at week 16.
4.1.3 Low dose group 1 (HFC-F/G+HL1): high fat feed+high sugar water+L47 20 mg/kg (10 mg/kg*2/d, i.e. once in the morning and once in the afternoon), 10 mice in total, wherein 3 mice were sacrificed at week 8, and 7 mice were sacrificed at week 16.
4.1.4 High dose group 1 (HFC-F/G+HH1): high fat feed+high sugar water+L47 60 mg/kg (30 mg/kg*2/d, i.e. once in the morning and once in the afternoon), 10 mice in total, wherein 3 mice were sacrificed at week 8, and 7 mice were sacrificed at week 16.
4.1.5 Low dose group 2 (HFC-F/G+HL2): high fat feed+high sugar water+L47 20 mg/kg (10 mg/kg*2/d, i.e. once in the morning and once in the afternoon, with pharmacologic intervention started 8 weeks after initiation of the experiment), 5 mice in total, which are sacrificed after 16 weeks.
4.1.6 High dose group 2 (HFC-F/G+HH2): high fat feed+high sugar water+L47 60 mg/kg (30 mg/kg*2/d, i.e. once in the morning and once in the afternoon, with pharmacologic intervention started 8 weeks after initiation of the experiment), 5 mice in total, which are sacrificed after 16 weeks.
Route of administration: subcutaneous injection.
as §2

C57BL6 mice [3] = test: Quantitative CT of body fat deposition, mouse NASH model; settings: week 16; for subcutaneous fat (CT): vs model group
Source text: as §1
Quantitative CT was used to locate and quantify subcutaneous, visceral and brown fat in mice at week 16.

C57BL6 mice [4] = test: Liver biochemistry test, mouse NASH model
Source text: as §1
Hydroxyproline and free fatty acid (FFA) kits (Cat No.: A030-3 and A042-1, respectively) were provided by Nanjing Jiancheng Bioengineering Research Institute;
Triglyceride (TG) and cholesterol (TC) (Cat No.: E1013-105 and E1015 respectively) were provided by Applygen Technologies Inc.
At week 8 and week 16, liver was taken and levels of TG, TC, free fatty acid (FFA), hydroxyproline (HYP) were measured.

[5] = treatment groups vs model group
[6] = week 8, treatment groups (HL1, HH1) vs model group

hepalatide [L47]
body weight (C57BL6 mice [1]; week 8, L47 treatment groups vs model group): significantly decreased | abdominal fat deposition (general observation) (C57BL6 mice [1]; week 8, treatment groups): significant effect | abdominal fat deposition (general observation) (C57BL6 mice [1]; week 16, among each group): no significant difference | body weight (C57BL6 mice [1]; week 16, low dose group 2): decrease | body weight (C57BL6 mice [1]; week 16, treatment groups except low dose group 2, vs model group): no significant difference | general observation of liver change (color, weight) (C57BL6 mice [2]; treatment groups vs model group, week 8 implied): improved | liver weight (C57BL6 mice [2]; week 8, each group (HL1, HH1)): no significant difference | general observation of liver change (color, weight) (C57BL6 mice [2]; week 16, low dose group 2 and high dose group 2 vs model group): liver colors tended to be normal | liver weight (C57BL6 mice [2]; week 16, vs model group, HL2 (L47 10 mg/kg*2/d s.c., started after 8 weeks), p<0.05): decreased significantly | subcutaneous fat (quantitative body fat on CT scan) (C57BL6 mice [3]; L47 treatment groups vs model group (conclusions)): decreased significantly | brown fat (CT) (C57BL6 mice [3]; [5]): no significant difference | visceral fat (CT) (C57BL6 mice [3]; [5]): no significant difference; also recorded: no significant effect | subcutaneous fat (CT) (C57BL6 mice [3]; HH1 (L47 30 mg/kg*2/d s.c. from start)): decreased | subcutaneous fat (CT) (C57BL6 mice [3]; HH2 (L47 30 mg/kg*2/d s.c., started after 8 weeks)): decreased | subcutaneous fat (CT) (C57BL6 mice [3]; HL2 (L47 10 mg/kg*2/d s.c., started after 8 weeks)): decreased | liver FFA level (C57BL6 mice [4]; week 8, high dose group vs model group, p<0.05): statistical significance | liver FFA level (C57BL6 mice [4]; [6]): decreasing trends; also recorded: decreased significantly | liver hydroxyproline level (C57BL6 mice [4]; [6]): decreasing trends; also recorded: reduced | liver TC level (C57BL6 mice [4]; week 8, treatment groups (HL1, HH1) vs model group, p<0.001, p≤0.001): significantly decreased | liver TG level (C57BL6 mice [4]; week 8, treatment groups (HL1, HH1) vs model group, p≤0.001, p<0.001): significantly decreased; also recorded: decreased significantly | liver hydroxyproline level (C57BL6 mice [4]; week 16, HH1 (L47 30 mg/kg*2/d s.c. from start)): higher | liver hydroxyproline level (C57BL6 mice [4]; week 16, HL1 (L47 10 mg/kg*2/d s.c. from start)): higher | liver TC level (C57BL6 mice [4]; week 16, treatment groups (HL1, HH1, HL2, HH2) vs model group, p<0.001 each): significantly decreased | liver FFA level (C57BL6 mice [4]; week 16, treatment groups vs model group): decreased; also recorded: decreasing trends | liver TG level (C57BL6 mice [4]; week 16, vs model group, HH1 (L47 30 mg/kg*2/d s.c. from start)): decreasing trends | liver hydroxyproline level (C57BL6 mice [4]; week 16, vs model group, HH2 (L47 30 mg/kg*2/d s.c., started after 8 weeks), more significant, p<0.05): decreased | liver TG level (C57BL6 mice [4]; week 16, vs model group, HH2 (L47 30 mg/kg*2/d s.c., started after 8 weeks), p<0.05): significantly decreased | liver TG level (C57BL6 mice [4]; week 16, vs model group, HL1 (L47 10 mg/kg*2/d s.c. from start)): decreasing trends | liver hydroxyproline level (C57BL6 mice [4]; week 16, vs model group, HL2 (L47 10 mg/kg*2/d s.c., started after 8 weeks)): decreased | liver TG level (C57BL6 mice [4]; week 16, vs model group, HL2 (L47 10 mg/kg*2/d s.c., started after 8 weeks), p<0.01): significantly decreased
